Source: patent US20040101915A1, “Diagnosis and treatment of chemoresistant tumors” (IRM LLC, a Delaware Limited Liability Company, priority 2002, published 2004)

Columns and labels:
[1] = tested on: DR5 protein levels in DOHH2 cells; conditions: 4.25 μM etoposide, Western blot
Experimental: Western blot analysis was used to evaluate protein expression. Cells (2.4×10^6 well) were seeded in 6 well plates and treated with the respective apoptosis stimuli. After the indicated time periods cells were washes in ice cold PBS and lysed in 1% Triton X-100 containing hypotonic lysis buffer (20 mM HEPES pH 7.5, 10 mM KCl, 1.5 mM MgCl2, 1 mM EDTA and 1 mM DTT). Protein (40 μg) was electorphoresed under reducing conditions on 10-20% gradient SDS-polyacrylamide gels. After electroblotting on nitrocellulose membranes (Schleicher and Schuell) the membranes were blocked for 1 h with 10% non-fat milk powder and immunoblotted for 1 h with the following primary antibodies: rabbit anti-DR5 polyclonal antibody (1:500, Cayman Chemicals), mouse anti-Fas monoclonal antibody CH-11 (MBL), rabbit anti-caspase-3 polyclonal antibody (1:1000, Pharmingen), rabbit anti-caspase-8 polyclonal antibody (1:1000, Pharmingen), mouse anti-caspase-9 monoclonal antibody 5B4 (1:1000, MBL), mouse anti-bcl-2 monoclonal antibody (1:500, Pharmingen) or goat anti-actin polyclonal antibody (1:200, Santa Cruz Biotechnology). Membranes were washed five times with TBS/0.05% Tween, incubated with the respective peroxidase conjugated affinity purified secondary antibody (1:5000, Biorad) for 30 min, washed again five times and developed using enhanced chemiluminescence (ECL, Amersham).

DOHH2 cells = experiment: MTT cytotoxicity assay, DOHH2 cells; type: cell-based, human; conditions: etoposide 0.425 μM 4 hours then agonistic anti-DR5 antibodies 12 hours, compared to drug or antibody alone
RL-7 cells = experiment: MTT cytotoxicity assay, RL-7 cells; type: cell-based, human; conditions: etoposide 0.425 μM 4 hours then agonistic anti-DR5 antibodies 12 hours
K422 cells [2] = experiment: MTT cytotoxicity assay, K422 cells; type: cell-based, human; conditions: for difference in IC50 concentrations in K422 cells compared to the other cell lines tested: 24 hours, MTT, other lines DOHH2, Jurkat, Jurkat bcl-2, RL-7
Experimental: An MTT cytotoxicity assay was used to determine the number of viable cells following treatment with various apoptotic stimuli. Cells (100 μl of a 8×10^5 cells/ml suspension) were added to each well of a 96 well plate and incubated with etoposide or doxorubicin for 24-72 h. MTT dye solution was then added for 4 h, the blue crystal product was solubilized over night at 37° C. and absorbance was measured at 570 nm. Because the MTT assay also measures growth arrest, the MTT results were verified with caspase activity assays.

K422 cells [3] = experiment: Western blot analysis of caspase processing in treated FL cells; type: cell-based, human; conditions: 100 nM; for processing of caspase-8: DOHH2, K422 and RL-7; for caspase processing of the caspases-2, -3, -7 and -9: K422 versus DOHH2 and RL-7
Source text: Western blot analysis was used to evaluate protein expression.

K422 cells [4] = experiment: Morphological examination of treated FL cells; type: cell-based, human; conditions: FL cells DOHH2, K422, RL-7
K422 cells [5] = experiment: Caspase activity assay (AFC release from DEVD-AFC) in lysates of treated cells; type: cell-based, human; conditions: 100 nM
Experimental: Caspase activities were assayed as previously described (Stennicke and Salvesen, 2000) at 37° C. in 40 μl of caspase buffer (50 mM HEPES pH 7.4, 100 mM NaCl, 10% sucrose, 1 mM EDTA, 0.1% CHAPS and 10 mM DTT) containing 100 μM of the fluorogenic peptide Ac-DEVD-AFC. Activity was measured continuously over the indicated time by the release of AFC from DEVD-AFC using a Molecular Devices fluorometer in the kinetic mode and with the 405-510 filter pair. For the assessment of caspase activity in intact cells after treatment with different apoptosis stimuli 10-20 μg of total cell protein (Triton X-100 extracts) was used in 40 μl of caspase buffer (containing 100 μM DEVD-AFC). For in-vitro initiation of caspase activity by cytochrome c Triton X-100 free, hypotonic cytosolic extracts were prepared and 10 μM horse heart cytochrome c (Sigma) together with 1 mM dATP or recombinant active caspase-8 (20 nM) were used for caspase activation (Deveraux et al., 1997). For reconstitution of RL-7 hypotonic cell extracts recombinant pro-caspase-3 was used as previously described (Stennicke et al., 1998).

NCI 60 tumor cell panel = conditions: NCI database; cited from earlier work

| Compound | DR5 protein levels following exposure [1] | effect of etoposide pretreatment on apoptosis induced by anti-DR5 antibody (DOHH2 cells) | effect of etoposide pretreatment on apoptosis induced by anti-DR5 antibody (RL-7 cells) | effect of etoposide pretreatment on apoptosis induced by anti-DR5 antibody (K422 cells [2]; K422, etoposide 0.425 μM 4 hours then agonistic anti-DR5 antibodies 12 hours) | processing of caspase-8 (K422 cells [3]) | caspase processing of the caspases-2, -3, -7 and -9 (K422 cells [3]) | classical features of apoptosis (morphology) (K422 cells [4]) | caspase activation (enzymatic activity) (K422 cells [5]) | sensitivity of NCI 60 tumor cell panel (NCI 60 tumor cell panel) | difference in IC50 concentrations in K422 cells compared to the other cell lines tested (K422 cells [2]) [fold] |
| --- | --- | --- | --- | --- | --- | --- | --- | --- | --- | --- |
| COc1cccc2c1C(=O)c1c(O)c3c(c(O)c1C2=O)C[C@@](O)(C(=O)CO)C[C@@H]3O[C@H]1C[C@H](N)[C@H](O)[C@H](C)O1 [doxorubicin] | significantly increased | – | – | – | – | – | – | – | – | – |
| COc1cc([C@@H]2c3cc4c(cc3[C@@H](O[C@@H]3O[C@@H]5CO[C@@H](C)O[C@H]5[C@H](O)[C@H]3O)[C@H]3COC(=O)[C@H]23)OCO4)cc(OC)c1O [etoposide] | significantly increased | significantly increased apoptosis | negligible effect | negligible effect | – | – | – | – | – | – |
| C[C@H]1CCC/C=C/[C@@H]2C[C@H](O)C[C@H]2[C@H](O)/C=C/C(=O)O1 [Brefeldin A] | – | – | – | – | remained unprocessed in all of the cell lines | only in K422 but not DOHH2 or the caspase-3 deficient RL-7 cells | only K422 exhibited the classical features of apoptosis | induced caspase activation | one of the most sensitive cell lines is NCI/ADR | 6 |
| CO[C@@H]1[C@H]([N+](C)(C)C)CC2O[C@]1(C)n1c3ccccc3c3c4c(c5c6ccccc6n2c5c31)C(=O)NC4 [Staur-F3] | – | – | – | – | remained unprocessed in all of the cell lines | only in K422 but not DOHH2 or the caspase-3 deficient RL-7 cells | only K422 exhibited the classical features of apoptosis | induced caspase activation | – | 25 |
